Measurements from the supplement of paper PMC10307832.

The cell lines below were run with CCN1CCN(c2ccc(Nc3cc(N(C)C(=O)Nc4c(Cl)c(OC)cc(OC)c4Cl)ncn3)cc2)CC1 [BGJ398] + N=C(N)NC(=N)NCCc1ccccc1 [Phenformin] (partner 250 µM) (assay: relative viability (nuclei count vs DMSO), 5 days (fraction); higher = more cells survive). Conditions: first compound 1 µM.
Procedure, shortened: (§1)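 Lung cancer cell lines were pin-tool dosed in 1536-well plates on the day after seeding, with either a lone drug or a fixed anchor-drug dose plus five library-drug doses (not always all listed) in √10 steps. Nuclei were counted on 4× images after 5 days. Relative viability is the ratio of treated-well to vehicle-well nuclei counts, with each value a median of duplicate plates.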

Cell Line | relative viability
HOP-62 | 0.773
HCC-44 | 0.161
A549 | 0.11
SW 900 | 0.279
LU99A | 0.765
BEN | 0.241
NCI-H1563 | 0.512

Each cell line was assayed with C1=CC2=NC=CN=C2C=C1/C=C/3\C(=O)NC(=O)S3 + N=C(N)NC(=N)NCCc1ccccc1 [Phenformin] (partner 250 µM) in the same assay as above. Conditions: first compound 0.02 µM.
Procedure, shortened: as §1

Cell Line | relative viability
NCI-H522 | 0.65
NCI-H1623 | 0.553
NCI-H727 | 0.552
NCI-H1650 | 0.442
NCI-H1993 | 0.492
SW 1573 | 0.377
NCI-H838 | 0.664
LCLC-103H | 0.325
NCI-H520 | 0.635
NCI-H2126 | 0.503
EMC-BAC-2 | 0.499
NCI-H2085 | 0.747
HCC-366 | 0.609
NCI-H1666 | 0.36
NCI-H596 | 0.744
LK-2 | 0.615
NCI-H2087 | 0.428

Cell Line | relative viability
NCI-H2342 | 0.486
SK-MES-1 | 0.623
H3255 | 0.368
COR-L23 | 0.459
COR-L 105 | 0.46
LOU-NH91 | 0.712
ChaGo-K-1 | 0.45
NCI-H2170 | 0.425
NCI-H2405 | 0.44
HOP-62 | 0.549
HCC-44 | 0.314
A549 | 0.175
SW 900 | 0.675
LU99A | 0.799
BEN | 0.253
NCI-H1563 | 0.667

Same assay, conditions: first compound 0.06325 µM

Cell Line | relative viability
NCI-H522 | 0.608
NCI-H1623 | 0.675
NCI-H727 | 0.504
NCI-H1650 | 0.392
NCI-H1993 | 0.529
SW 1573 | 0.443
NCI-H838 | 0.737
LCLC-103H | 0.322
NCI-H520 | 0.728
NCI-H2126 | 0.581
EMC-BAC-2 | 0.532
NCI-H2085 | 0.721
NCI-H1666 | 0.481
NCI-H596 | 0.66
LK-2 | 0.603
NCI-H2087 | 0.33

Cell Line | relative viability
NCI-H2342 | 0.577
SK-MES-1 | 0.697
H3255 | 0.348
COR-L23 | 0.455
COR-L 105 | 0.43
LOU-NH91 | 0.72
ChaGo-K-1 | 0.466
NCI-H2170 | 0.375
NCI-H2405 | 0.406
HOP-62 | 0.643
HCC-44 | 0.212
A549 | 0.137
SW 900 | 0.601
LU99A | 0.814
BEN | 0.3
NCI-H1563 | 0.674

Same assay, conditions: first compound 0.2 µM

Cell Line | relative viability
NCI-H522 | 0.666
NCI-H1623 | 0.622
NCI-H727 | 0.686
NCI-H1650 | 0.503
NCI-H1993 | 0.513
SW 1573 | 0.429
NCI-H838 | 0.596
LCLC-103H | 0.351
NCI-H520 | 0.601
NCI-H2126 | 0.567
EMC-BAC-2 | 0.55
NCI-H2085 | 0.716
HCC-366 | 0.632
NCI-H1666 | 0.578
NCI-H596 | 0.742
LK-2 | 0.488
NCI-H2087 | 0.42

Cell Line | relative viability
NCI-H2342 | 0.739
SK-MES-1 | 0.713
H3255 | 0.358
COR-L23 | 0.46
COR-L 105 | 0.494
LOU-NH91 | 0.569
ChaGo-K-1 | 0.516
NCI-H2170 | 0.441
NCI-H2405 | 0.397
HOP-62 | 0.695
HCC-44 | 0.202
A549 | 0.156
SW 900 | 0.702
LU99A | 0.862
BEN | 0.247
NCI-H1563 | 0.657

Same assay, conditions: first compound 0.6325 µM

Cell Line | relative viability
NCI-H522 | 0.564
NCI-H1623 | 0.608
NCI-H727 | 0.454
NCI-H1650 | 0.432
NCI-H1993 | 0.557
SW 1573 | 0.323
NCI-H838 | 0.461
LCLC-103H | 0.354
NCI-H520 | 0.464
NCI-H2126 | 0.534
EMC-BAC-2 | 0.518
NCI-H2085 | 0.671
HCC-366 | 0.612
NCI-H1666 | 0.541
NCI-H596 | 0.675
LK-2 | 0.368
NCI-H2087 | 0.493

Cell Line | relative viability
NCI-H2342 | 0.565
SK-MES-1 | 0.626
H3255 | 0.358
COR-L23 | 0.43
COR-L 105 | 0.5
LOU-NH91 | 0.703
ChaGo-K-1 | 0.35
NCI-H2170 | 0.426
NCI-H2405 | 0.383
HOP-62 | 0.646
HCC-44 | 0.153
A549 | 0.2
SW 900 | 0.4
LU99A | 0.926
BEN | 0.275
NCI-H1563 | 0.648

Same assay, conditions: first compound 2 µM

Cell Line | relative viability
NCI-H522 | 0.579
NCI-H1623 | 0.494
NCI-H727 | 0.283
NCI-H1650 | 0.385
NCI-H1993 | 0.599
SW 1573 | 0.287
NCI-H838 | 0.36
LCLC-103H | 0.25
NCI-H520 | 0.644
NCI-H2126 | 0.339
EMC-BAC-2 | 0.396
NCI-H2085 | 0.65
HCC-366 | 0.575
NCI-H1666 | 0.548
NCI-H596 | 0.714
LK-2 | 0.195
NCI-H2087 | 0.502

Cell Line | relative viability
NCI-H2342 | 0.526
SK-MES-1 | 0.645
H3255 | 0.3
COR-L23 | 0.425
COR-L 105 | 0.413
LOU-NH91 | 0.564
ChaGo-K-1 | 0.369
NCI-H2170 | 0.423
NCI-H2405 | 0.111
HOP-62 | 0.622
HCC-44 | 0.122
A549 | 0.152
SW 900 | 0.551
LU99A | 0.625
BEN | 0.272
NCI-H1563 | 0.663

What follows are cell lines tested with C1=CC2=NC=CN=C2C=C1/C=C/3\C(=O)NC(=O)S3 + CC(=O)c1c(C)c2cnc(Nc3ccc(N4CCNCC4)cn3)nc2n(C2CCCC2)c1=O [Palbociclib] (partner 0.5 µM) in the same assay as above. Conditions: first compound 0.02 µM.
Procedure, shortened: as §1

Cell Line | relative viability
NCI-H522 | 1.06
NCI-H727 | 0.549
NCI-H1650 | 0.218
NCI-H1993 | 0.623
SW 1573 | 0.464
NCI-H838 | 0.217
LCLC-103H | 0.482
NCI-H520 | 0.211
NCI-H2126 | 0.329
EMC-BAC-2 | 0.496
NCI-H2085 | 0.494
HCC-366 | 0.355
NCI-H1666 | 0.608
LK-2 | 0.593
NCI-H2087 | 0.195
NCI-H2342 | 0.508
SK-MES-1 | 0.328
H3255 | 0.328
COR-L23 | 0.276
COR-L 105 | 0.429
LOU-NH91 | 0.501
ChaGo-K-1 | 0.888
NCI-H2170 | 0.35
NCI-H2405 | 0.517
HOP-62 | 0.478
HCC-44 | 0.866
SW 900 | 0.491
LU99A | 0.444
BEN | 0.491
NCI-H1648 | 0.301

Same assay, conditions: first compound 0.06325 µM

Cell Line | relative viability
NCI-H522 | 1.08
NCI-H727 | 0.683
NCI-H1650 | 0.43
NCI-H1993 | 0.68
SW 1573 | 0.56
NCI-H838 | 0.25
LCLC-103H | 0.457
NCI-H520 | 0.246
NCI-H2126 | 0.404
EMC-BAC-2 | 0.568
NCI-H2085 | 0.436
NCI-H1666 | 0.749
LK-2 | 0.767
NCI-H2087 | 0.229
NCI-H2342 | 0.524
SK-MES-1 | 0.305
H3255 | 0.342
COR-L23 | 0.281
COR-L 105 | 0.423
LOU-NH91 | 0.538
ChaGo-K-1 | 0.69
NCI-H2170 | 0.448
NCI-H2405 | 0.585
HOP-62 | 0.527
HCC-44 | 0.946
SW 900 | 0.545
LU99A | 0.389
BEN | 0.422
NCI-H1648 | 0.223

Same assay, conditions: first compound 0.2 µM

Cell Line | relative viability
NCI-H522 | 0.876
NCI-H727 | 0.637
NCI-H1650 | 0.37
NCI-H1993 | 0.58
SW 1573 | 0.346
NCI-H838 | 0.233
LCLC-103H | 0.475
NCI-H520 | 0.251
NCI-H2126 | 0.358
EMC-BAC-2 | 0.54
NCI-H2085 | 0.485
HCC-366 | 0.357
NCI-H1666 | 0.629
LK-2 | 0.619
NCI-H2087 | 0.215
NCI-H2342 | 0.547
SK-MES-1 | 0.344
H3255 | 0.314
COR-L23 | 0.295
COR-L 105 | 0.387
LOU-NH91 | 0.556
ChaGo-K-1 | 0.971
NCI-H2170 | 0.405
NCI-H2405 | 0.528
HOP-62 | 0.44
HCC-44 | 1.03
SW 900 | 0.511
LU99A | 0.439
BEN | 0.492
NCI-H1648 | 0.345

Same assay, conditions: first compound 0.6325 µM

Cell Line | relative viability
NCI-H522 | 0.816
NCI-H727 | 0.649
NCI-H1650 | 0.347
NCI-H1993 | 0.603
SW 1573 | 0.309
NCI-H838 | 0.179
LCLC-103H | 0.431
NCI-H520 | 0.181
NCI-H2126 | 0.369
EMC-BAC-2 | 0.498
NCI-H2085 | 0.448
HCC-366 | 0.366
NCI-H1666 | 0.651
LK-2 | 0.665
NCI-H2087 | 0.268
NCI-H2342 | 0.484
SK-MES-1 | 0.338
H3255 | 0.318
COR-L23 | 0.3
COR-L 105 | 0.349
LOU-NH91 | 0.552
ChaGo-K-1 | 0.917
NCI-H2170 | 0.374
NCI-H2405 | 0.512
HOP-62 | 0.373
HCC-44 | 0.969
LU99A | 0.398
BEN | 0.475

Same assay, conditions: first compound 2 µM

Cell Line | relative viability
NCI-H522 | 0.749
NCI-H727 | 0.556
NCI-H1650 | 0.343
NCI-H1993 | 0.331
SW 1573 | 0.33
NCI-H838 | 0.17
LCLC-103H | 0.485
NCI-H520 | 0.201
NCI-H2126 | 0.339
EMC-BAC-2 | 0.384
NCI-H2085 | 0.46
HCC-366 | 0.374
NCI-H1666 | 0.675
LK-2 | 0.24
NCI-H2087 | 0.222
NCI-H2342 | 0.498
SK-MES-1 | 0.313
H3255 | 0.307
COR-L23 | 0.235
COR-L 105 | 0.412
LOU-NH91 | 0.548
ChaGo-K-1 | 0.947
NCI-H2170 | 0.374
NCI-H2405 | 0.436
HOP-62 | 0.449
HCC-44 | 0.919
SW 900 | 0.602
LU99A | 0.276
BEN | 0.448
NCI-H1648 | 0.23
